The values below come from patent US5229109A, “Low toxicity interleukin-2 analogues for use in immunotherapy” (priority 1992, dated 1993).

The target of one assay is T1, IL-2 receptor p75 (Homo sapiens, UniProt P14784).
T1 construct: Each assay contained approximately 6×10^5 cells; endogenous in cells
T1 sequence (P14784 27-551): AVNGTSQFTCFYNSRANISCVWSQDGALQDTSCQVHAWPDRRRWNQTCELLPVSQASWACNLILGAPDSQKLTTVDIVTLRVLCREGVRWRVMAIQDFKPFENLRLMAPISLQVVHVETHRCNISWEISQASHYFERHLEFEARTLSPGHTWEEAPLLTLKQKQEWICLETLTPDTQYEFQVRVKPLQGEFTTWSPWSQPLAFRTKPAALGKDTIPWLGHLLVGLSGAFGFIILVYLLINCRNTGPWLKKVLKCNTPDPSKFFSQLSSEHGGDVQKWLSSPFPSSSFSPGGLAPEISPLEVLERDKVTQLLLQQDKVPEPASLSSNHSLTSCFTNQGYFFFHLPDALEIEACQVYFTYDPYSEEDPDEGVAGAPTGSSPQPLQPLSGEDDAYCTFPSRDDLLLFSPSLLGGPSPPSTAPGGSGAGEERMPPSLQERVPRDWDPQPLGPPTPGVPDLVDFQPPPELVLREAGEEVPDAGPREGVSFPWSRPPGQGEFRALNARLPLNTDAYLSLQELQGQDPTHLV
T1 sequence (P31785 23-369 partner): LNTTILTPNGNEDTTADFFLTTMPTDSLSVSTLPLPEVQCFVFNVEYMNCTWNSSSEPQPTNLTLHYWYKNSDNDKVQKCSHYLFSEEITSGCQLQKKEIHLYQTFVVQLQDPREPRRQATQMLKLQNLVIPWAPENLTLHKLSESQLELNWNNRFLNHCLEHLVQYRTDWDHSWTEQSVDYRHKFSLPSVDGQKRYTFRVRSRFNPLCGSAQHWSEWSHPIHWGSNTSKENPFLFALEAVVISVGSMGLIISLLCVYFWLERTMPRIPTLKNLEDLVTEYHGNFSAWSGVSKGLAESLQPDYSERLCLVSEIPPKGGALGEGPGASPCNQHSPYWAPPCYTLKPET
As to the kind of experiment: IL-2 specific binding assay, intermediate affinity receptor. How it is done: The cells were then incubated for 1 hour at 37° C. and the washing procedure was repeated three times. […] Nonspecific binding was determined by inclusion of 50 nM unlabeled human rIL-2 in the assay. Incubations were carried out in duplicate or triplicate for 20 minutes at 37° C.

The subject of the next assay is Daudi targets. As to the kind of experiment: LAK generation, 4 hour 51Cr release cytotoxicity assay. It is filed as cell-based, human. The note with it: 100:1 effector:target ratio; 0.5 nM native IL-2 or 1 nM mutants. As to the method: The abilities of optimal concentrations of IL-2 and the analogues to stimulate peripheral blood mononuclear cells to generate lymphokine activated killing (LAK) in vitro were next compared.
(§1) Fresh peripheral blood mononuclear cells (PBMC) obtained from leukopharesis of normal human donors were isolated over a Ficoll-Hypaque gradient. […] Non-adherent cells were tested for cytotoxicity against Daudi targets by a 4 hour ^51 Cr release assay, with specific lysis being presented as the mean of triplicate values. Cell-free supernatants from 3 day PBMC cultures were analyzed by ELISA for cytokine content.

In assay [1] the target is T2, low affinity receptor p55 (Homo sapiens, UniProt P01589).
T2 sequence (P01589 22-272): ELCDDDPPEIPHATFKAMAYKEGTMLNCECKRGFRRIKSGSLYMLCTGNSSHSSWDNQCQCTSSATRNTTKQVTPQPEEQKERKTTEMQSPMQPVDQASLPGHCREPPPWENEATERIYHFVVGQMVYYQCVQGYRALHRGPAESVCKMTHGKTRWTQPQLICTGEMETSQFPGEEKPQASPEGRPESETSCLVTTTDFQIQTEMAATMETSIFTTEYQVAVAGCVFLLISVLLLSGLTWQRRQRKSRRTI
The note with it: Sauve et al., 1991; cited from earlier work.

Assay [2] deals with peripheral blood mononuclear cells (TNF-α secretion). As to the kind of experiment: TNF-α secretion by PBMC, ELISA of LAK culture supernatants. It is filed as cell-based, human. The note with it: for TNF-α decreased: maximal decrease vs native IL-2, supernatants at 24 hour intervals up to 7 days. How it is done: (§2) The abilities of the same concentrations of IL-2 and the analogues to stimulate peripheral blood mononuclear cells to secrete IL-1β and TNF-α in vitro were first compared. At 24 hour intervals up to 7 days, the LAK culture supernatants from the above-described experiment were collected and tested for IL-1β and TNF-α content using ELISA methodology. Commercially available ELISA kits were purchased from R & D Systems (TNF-α and TNF-β ), Immunotech (IL-1α and IL-1β), and Endogen (IFN-γ). The ELISAs were performed according to the protocols supplied by the manufacturer.
as §1
In general terms: ELISA stands for enzyme-linked immunosorbent assay.

In assay [3] the test system is peripheral blood mononuclear cells (IL-1β secretion). As to the kind of experiment: IL-1β secretion by PBMC, ELISA of LAK culture supernatants. It is filed as cell-based, human. Conditions: for IL-1β secretion decreased: maximal decrease vs native IL-2, supernatants at 24 hour intervals up to 7 days. How it is done:
as §2, §1

Assay [4] concerns the target T3, intermediate receptor p75 (Homo sapiens, UniProt P14784).
T3 sequence (P14784 27-551): T1 sequence (P14784 27-551)
T3 sequence (P31785 23-369 partner): T1 sequence (P31785 23-369 partner)
Conditions: Sauve et al., 1991; cited from earlier work.

Assay [5] has as its system IL-2 receptor p55 on PBMC. As to the kind of experiment: FACS analysis of p55 expression on cultured PBMC. It is filed as cell-based, human. Conditions: cultures stimulated for 72 hours. How it is done:
Cultured PBMC were washed with PBS, 1% bovine serum albumin (BSA), and 0.1% sodium azide. To approximately one million cells, FITC-labelled monoclonal antibody against IL-2 receptor p55 or a non-specific control mouse IgG (Becton-Dickinson) was added. Following incubation for 30 minutes, the cells were washed twice using a Sorvall cell washer 2L, then fixed in PBS and 1% paraformaldehyde. The cells were then analyzed on Becton-Dickinson FACScan and results were presented as per cent of gated cells positive for p55 after subtraction of non-specific background fluorescence.
(In general: Flow cytometry measures light scatter and fluorescence of single cells or particles in a stream.)

Where [6] appears, read: all time points, p<0.05, 3-way ANOVA.

For the substance R38A, in the assay with IL-2 receptor p75, the “ability to bind IL-2 receptor p75” value is reported as “maintain their ability to bind”. Besides, the “% maximal specific lysis” value with Daudi targets stood at 55%. In addition, in assay [1], the “binding to the low affinity receptor p55” value is listed as “could no longer bind”. Moreover, the TNF-α decreased in assay [2] is on record as no more than 66%. Further, the IL-1β secretion decreased in assay [3] was no more than 28%. The “affinity for the intermediate receptor p75” value in assay [4] is reported as “maintained their affinity”.

In the case of “F42K: recombinant human IL-2 analogue, Phenylalanine (F) at position 42→Lysine (K)”, in the assay with IL-2 receptor p75, the “ability to bind IL-2 receptor p75” value is reported as “maintain their ability to bind”. Also, in assay [5], the “percentage of cells expressing p55” value is given as 30% and the “percentage of cells expressing p55 doubled” value was “doubled”. The “% maximal specific lysis” value with Daudi targets is 54%. Besides, the “binding to the low affinity receptor p55” value in assay [1] was “could no longer bind”. Moreover, in assay [2] (setting [6]), the “TNF-α compared to that produced in response to native IL-2” value was “significantly decreased”. The TNF-α decreased in assay [2] is listed as no more than 77%. For the same substance, the “IL-1β compared to that produced in response to native IL-2” value in assay [3] (setting [6]) was “significantly decreased”. Further, the IL-1β secretion decreased result in assay [3] is “up to 43%”. In addition, in assay [4], the “affinity for the intermediate receptor p75” value is “maintained their affinity”.
